The target in experiment [1] is T1, QPCTL (Homo sapiens (Human), UniProt Q9NXS2). The experiment can be described thus: Inhibition of Cellular QPCTL Activity - Imaging Assay, CC2C6 anti-CD47 staining of DLD-1 cells. In kind it is cell-based. The settings on record: 72 hours, CC2C6 anti-CD47 high-content imaging. The procedure:
Inhibition of Cellular QPCTL Activity—Imaging Assay
The cells were incubated for 72 hours at 37° C. and 5% CO2. […] After primary antibody staining, the cells were fixed with 4% paraformaldehyde in the incubation buffer for 15 minutes at room temperature. […] Cells were analyzed on a ImageXpress Pico Automated Cell Imaging System (Molecular Devices) using 10× objective (3×3 fields).
Target sequence in this assay (Q9NXS2 whole entry): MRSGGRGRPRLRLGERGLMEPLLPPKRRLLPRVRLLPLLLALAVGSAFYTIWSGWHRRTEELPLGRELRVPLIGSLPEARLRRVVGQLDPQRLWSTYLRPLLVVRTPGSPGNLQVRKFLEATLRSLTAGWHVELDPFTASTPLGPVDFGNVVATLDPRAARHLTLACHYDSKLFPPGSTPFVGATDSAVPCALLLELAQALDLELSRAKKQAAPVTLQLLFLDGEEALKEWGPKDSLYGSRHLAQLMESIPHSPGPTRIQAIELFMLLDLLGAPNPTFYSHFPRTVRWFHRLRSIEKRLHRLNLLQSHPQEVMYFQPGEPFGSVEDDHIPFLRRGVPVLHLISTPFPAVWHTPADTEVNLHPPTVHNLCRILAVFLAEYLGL

In a further experiment the target is QPCT (rhQPCT) (Homo sapiens (Human), UniProt Q16769). Kind of experiment: QPCT Enzymatic Activity Assay (coupled-enzyme fluorescent assay, H-Gln-AMC substrate). The settings on record: rhQPCT 10-12 nM, 10 μM H-Gln-AMC; read-out: QPCT Inhibition IC50. In kind it is biochemical. The method in brief: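 Coupled assay: recombinant human QPCT converts H-Gln-AMC (10 μM final) to pyroglutamyl-AMC, 60 min at 37 °C, stopped by boiling; PGPEP-1 then releases AMC.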

For experiment [2], the target named is T1, QPCTL. Kind of experiment: QPCTL Enzymatic Activity Assay (coupled-enzyme fluorescent assay, H-Gln-AMC substrate). In kind it is biochemical. Conditions: recombinant truncated human QPCTL 10-12 nM, 10 μM H-Gln-AMC; read-out: QPCTL Inhibition IC50.
Target sequence in this assay (Q9NXS2 53-382): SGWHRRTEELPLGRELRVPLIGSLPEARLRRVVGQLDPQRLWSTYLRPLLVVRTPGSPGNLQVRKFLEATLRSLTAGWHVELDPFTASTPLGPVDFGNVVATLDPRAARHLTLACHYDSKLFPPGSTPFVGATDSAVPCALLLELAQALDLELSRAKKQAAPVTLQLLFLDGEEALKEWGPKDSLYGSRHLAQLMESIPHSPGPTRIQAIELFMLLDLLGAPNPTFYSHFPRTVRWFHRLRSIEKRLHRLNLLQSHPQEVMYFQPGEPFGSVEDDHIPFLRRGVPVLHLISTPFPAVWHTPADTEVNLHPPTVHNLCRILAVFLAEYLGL

Each structure is given as a SMILES string. pIC50: −log10 of the molar value.

Chain of QPCT (rhQPCT) (Q16769 29-361): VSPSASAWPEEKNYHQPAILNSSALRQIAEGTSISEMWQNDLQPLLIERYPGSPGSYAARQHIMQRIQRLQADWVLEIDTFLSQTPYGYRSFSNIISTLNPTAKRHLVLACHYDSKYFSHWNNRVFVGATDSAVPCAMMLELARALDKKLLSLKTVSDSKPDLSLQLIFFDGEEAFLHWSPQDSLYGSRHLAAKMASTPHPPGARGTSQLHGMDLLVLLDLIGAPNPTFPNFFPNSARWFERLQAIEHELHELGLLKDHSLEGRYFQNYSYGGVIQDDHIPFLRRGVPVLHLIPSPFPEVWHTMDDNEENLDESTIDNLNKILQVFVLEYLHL

Consider `Cn1cnnc1C1CCN(c2c(C#N)cc(S(C)(=O)=O)cc2-c2ccc(F)nc2)CC1` [Example 101, 3-(6-fluoropyridin-3-yl)-2-(4-(4-methyl-4H-1,2,4-triazol-3-yl)piperidin-1-yl)-5-(methylsulfonyl)benzonitrile], for which the pIC50 was 5.00 to 6.00 against QPCTL [1], more than 7.00 at QPCT (rhQPCT) and more than 7.00 at QPCTL [2].

With `Cc1cc(C#N)c(N2CCC(c3nncn3C)CC2)c(-c2ccc(F)nc2)c1` [Example 66, 3-(6-fluoropyridin-3-yl)-5-methyl-2-(4-(4-methyl-4H-1,2,4-triazol-3-yl)piperidin-1-yl)benzonitrile], the pIC50 against QPCTL [1], on QPCT (rhQPCT) and at QPCTL [2] was more than 7.00 in each case.

Turning to `Cn1cnnc1C1CCN(c2c(-c3ccc(F)nc3)ccc(C3CC3)c2C#N)CC1` [Example 68, 6-cyclopropyl-3-(6-fluoropyridin-3-yl)-2-(4-(4-methyl-4H-1,2,4-triazol-3-yl)piperidin-1-yl)benzonitrile], the pIC50 against QPCTL [1], at QPCT (rhQPCT) and on QPCTL [2] was more than 7.00 throughout.

As for `Cn1cnnc1C1CCN(c2c(-c3ccc(F)nc3)cc3cn[nH]c3c2C#N)CC1` [Example 105, 5-(6-fluoropyridin-3-yl)-6-(4-(4-methyl-4H-1,2,4-triazol-3-yl)piperidin-1-yl)-1H-indazole-7-carbonitrile], the pIC50 was 6.00 to 7.00 at QPCTL [1], more than 7.00 at QPCT (rhQPCT) and more than 7.00 on QPCTL [2].

On to `Cn1cnnc1C1CCN(c2c(C#N)cccc2-c2cncc(Cl)c2)CC1` [Example 115, 3-(5-chloropyridin-3-yl)-2-(4-(4-methyl-4H-1,2,4-triazol-3-yl)piperidin-1-yl)benzonitrile], for which the figures for the negative logarithm of the IC50 (pIC50) at QPCTL [1], on QPCT (rhQPCT) and on QPCTL [2] were 6.00 to 7.00, more than 7.00 and more than 7.00, respectively.

As to `Cn1cnnc1C1CCN(c2c(-c3ccc(F)nc3)ccc(OC3CC3)c2C#N)CC1` [Example 76, 6-cyclopropoxy-3-(6-fluoropyridin-3-yl)-2-(4-(4-methyl-4H-1,2,4-triazol-3-yl)piperidin-1-yl)benzonitrile], the pIC50 at QPCTL [1], at QPCT (rhQPCT) and on QPCTL [2] was more than 7.00 each time.

On to `Cn1cnnc1N1CCN(c2c(C#N)cccc2-c2ccc(F)nc2)CC1` [Example 106, 3-(6-fluoropyridin-3-yl)-2-(4-(4-methyl-4H-1,2,4-triazol-3-yl)piperazin-1-yl)benzonitrile], for which the negative-log IC50 (pIC50) at QPCTL [1], on QPCT (rhQPCT) and on QPCTL [2] was more than 7.00 in each case.

On to `Cn1cnnc1C1CCN(c2c(-c3ccc(F)nc3)ccc(NC3CC3)c2C#N)CC1` [Example 81, 6-(cyclopropylamino)-3-(6-fluoropyridin-3-yl)-2-(4-(4-methyl-4H-1,2,4-triazol-3-yl)piperidin-1-yl)benzonitrile], for which the negative logarithm of the IC50 (pIC50) against QPCTL [1], at QPCT (rhQPCT) and on QPCTL [2] was more than 7.00 in each case.

As to `CN1CCN(c2ccc(-c3ccc(F)nc3)c(N3CCC(c4nncn4C)CC3)c2C#N)CC1` [Example 80, 3-(6-fluoropyridin-3-yl)-2-(4-(4-methyl-4H-1,2,4-triazol-3-yl)piperidin-1-yl)-6-(4-methylpiperazin-1-yl)benzonitrile], the negative logarithm of the IC50 (pIC50) at QPCTL [1], on QPCT (rhQPCT) and on QPCTL [2] was more than 7.00 throughout.

For the compound `CN1CCC(Oc2ccc(-c3ccc(F)nc3)c(N3CCC(c4nncn4C)CC3)c2C#N)C1` (single isomer, unassigned) [Example 91, 3-(6-fluoropyridin-3-yl)-2-(4-(4-methyl-4H-1,2,4-triazol-3-yl)piperidin-1-yl)-6-((1-methylpyrrolidin-3-yl)oxy)benzonitrile], the pIC50 is 6.00 to 7.00 at QPCTL [1], more than 7.00 at QPCT (rhQPCT) and more than 7.00 at QPCTL [2].

For the compound `Cn1cnnc1C1CCN(c2c(C#N)cccc2-c2cncc(O)c2)CC1` [Example 120, 3-(5-hydroxypyridin-3-yl)-2-(4-(4-methyl-4H-1,2,4-triazol-3-yl)piperidin-1-yl)benzonitrile], the pIC50 against QPCTL [1], on QPCT (rhQPCT) and at QPCTL [2] was more than 7.00 each time.

On to `COc1ccc(-c2cnc3nccn3c2)c(N2CCC(c3nncn3C)CC2)c1C#N` [Example 94, 3-(imidazo[1,2-a]pyrimidin-6-yl)-6-methoxy-2-(4-(4-methyl-4H-1,2,4-triazol-3-yl)piperidin-1-yl)benzonitrile], for which the negative-log IC50 (pIC50) against QPCTL [1] is 5.00 to 6.00; at QPCT (rhQPCT) it was more than 7.00; on QPCTL [2] it was more than 7.00.

As to `Cn1cnnc1C1CCN(c2c(-c3ccc(F)nc3)ccc(N)c2C#N)CC1` [Example 78, 6-amino-3-(6-fluoropyridin-3-yl)-2-(4-(4-methyl-4H-1,2,4-triazol-3-yl)piperidin-1-yl)benzonitrile], the pIC50 against QPCTL [1], on QPCT (rhQPCT) and on QPCTL [2] was more than 7.00 in each case.

Regarding `Cn1cnnc1C1CCN(c2c(C#N)cccc2-c2ccc3c(c2)COB3O)CC1` [Example 123, 3-(1-hydroxy-1,3-dihydrobenzo[c][1,2]oxaborol-5-yl)-2-(4-(4-methyl-4H-1,2,4-triazol-3-yl)piperidin-1-yl)benzonitrile], the pIC50 against QPCTL [1] was 5.00 to 6.00; at QPCT (rhQPCT), more than 7.00; on QPCTL [2], more than 7.00.

For the compound `Cn1cnnc1C1CCN(c2c(-c3ccc(F)nc3)ccc(N3CCOCC3)c2C#N)CC1` [Example 87, 3-(6-fluoropyridin-3-yl)-2-(4-(4-methyl-4H-1,2,4-triazol-3-yl)piperidin-1-yl)-6-morpholinobenzonitrile], the pIC50 against QPCTL [1], on QPCT (rhQPCT) and on QPCTL [2] was more than 7.00 in each case.

As for `Cn1cnnc1C1CCN(c2c(-c3ccc(F)nc3)ccc(-c3cnn(C4CCNCC4)c3)c2C#N)CC1` [Example 42, 3-(6-fluoropyridin-3-yl)-2-(4-(4-methyl-4H-1,2,4-triazol-3-yl)piperidin-1-yl)-6-(1-(piperidin-4-yl)-1H-pyrazol-4-yl)benzonitrile], the pIC50 against QPCTL [1] is 6.00 to 7.00; on QPCT (rhQPCT), more than 7.00; on QPCTL [2] it was more than 7.00.

With `Cn1cnnc1C1CCN(c2c(C#N)cc(Cl)cc2-c2ccc(F)nc2)CC1` [Example 69, 5-chloro-3-(6-fluoropyridin-3-yl)-2-(4-(4-methyl-4H-1,2,4-triazol-3-yl)piperidin-1-yl)benzonitrile], the pIC50 against QPCTL [1], at QPCT (rhQPCT) and at QPCTL [2] was more than 7.00 in each case.

For `Cn1cnnc1C1CCN(c2c(C#N)cccc2-c2ccc(F)cc2)CC1` [Example 96, 4′-fluoro-2-(4-(4-methyl-4H-1,2,4-triazol-3-yl)piperidin-1-yl)-[1,1′-biphenyl]-3-carbonitrile], the pIC50 on QPCTL [1] is 5.00 to 6.00; at QPCT (rhQPCT), more than 7.00; on QPCTL [2] it was more than 7.00.

Consider `CN(C)CCn1cc(-c2ccc(-c3ccc(F)nc3)c(N3CCC(c4nncn4C)CC3)c2C#N)cn1` [Example 60, 6-(1-(2-(dimethylamino)ethyl)-1H-pyrazol-4-yl)-3-(6-fluoropyridin-3-yl)-2-(4-(4-methyl-4H-1,2,4-triazol-3-yl)piperidin-1-yl)benzonitrile], for which the pIC50 at QPCTL [1], at QPCT (rhQPCT) and at QPCTL [2] was more than 7.00 in each case.

Take `Cn1cnnc1C1CCN(c2c(C#N)cccc2-c2cncc(B(O)O)c2)CC1` [Example 117, (5-(3-cyano-2-(4-(4-methyl-4H-1,2,4-triazol-3-yl)piperidin-1-yl)phenyl)pyridin-3-yl)boronic acid]: the pIC50 against QPCTL [1], on QPCT (rhQPCT) and at QPCTL [2] was more than 7.00 in each case.

For `Cn1cnnc1C1CCN(c2c(C#N)cccc2-c2ccc(O)c(C=O)c2)CC1` [Example 109, 3′-formyl-4′-hydroxy-2-(4-(4-methyl-4H-1,2,4-triazol-3-yl)piperidin-1-yl)-[1,1′-biphenyl]-3-carbonitrile], the negative logarithm of the IC50 (pIC50) against QPCTL [1], on QPCT (rhQPCT) and at QPCTL [2] was more than 7.00 each time.

Consider `Cn1cnnc1C1CCN(c2c(-c3ccc(F)nc3)ccc(N3CCNCC3)c2C#N)CC1` [Example 85, 3-(6-fluoropyridin-3-yl)-2-(4-(4-methyl-4H-1,2,4-triazol-3-yl)piperidin-1-yl)-6-(piperazin-1-yl)benzonitrile], for which the pIC50 was 5.00 to 6.00 against QPCTL [1], more than 7.00 on QPCT (rhQPCT) and more than 7.00 on QPCTL [2].

On to `Cn1cnnc1C1CCN(c2c(-c3ccc(F)nc3)ccc(-c3c[nH]nc3N)c2C#N)CC1` [Example 92, 6-(3-amino-1H-pyrazol-4-yl)-3-(6-fluoropyridin-3-yl)-2-(4-(4-methyl-4H-1,2,4-triazol-3-yl)piperidin-1-yl)benzonitrile], for which the pIC50 against QPCTL [1] was 6.00 to 7.00; on QPCT (rhQPCT), more than 7.00; at QPCTL [2] it was more than 7.00.

For `COc1cc(F)c(-c2ccc(F)nc2)c(N2CCC(c3nncn3C)CC2)c1C#N` [Example 107, 4-fluoro-3-(6-fluoropyridin-3-yl)-6-methoxy-2-(4-(4-methyl-4H-1,2,4-triazol-3-yl)piperidin-1-yl)benzonitrile], the negative logarithm of the IC50 (pIC50) against QPCTL [1], on QPCT (rhQPCT) and at QPCTL [2] was more than 7.00 in each case.

As to `Cc1cc(-c2cccc(C#N)c2N2CCC(c3nncn3C)CC2)cnc1F` [Example 47, 3-(6-fluoro-5-methylpyridin-3-yl)-2-(4-(4-methyl-4H-1,2,4-triazol-3-yl)piperidin-1-yl)benzonitrile], the pIC50 against QPCTL [1], at QPCT (rhQPCT) and at QPCTL [2] was more than 7.00 throughout.

The term pIC50 denotes the IC50 on a negative log10 scale, so that one unit is a factor of ten.
